Assay results reported in patent US10568930B2, “Agents and methods of treatment” (Hexima Limited, priority 2014, dated 2020).

Tests used:
Assay type in all cases: cell-based
Details in all cases: for Expected inhibition: Ee, Limpel formula; for Synergy: Io-Ee
Cryptococcus gattii = assay: Antifungal growth assay, defensin plus proteinase inhibitor
Method: (§1) Spores are isolated from sporulating fungus spp. growing on yeast extract peptone dextrose agar (Candida albicans, Cryptococcus gattii—1.5×10^6) or ½ strength Sabouraud dextrose agar (Trichophyton interdigitale, Microsporum fulvum—5×10^4). Spores are removed from the plates by the addition of ½ strength potato dextrose broth (PDB). Spore concentrations are measured using a haemocytometer.
(§2) Antifungal assays were conducted in 96 well microtitre plates. Wells were loaded with 10 μL of filter sterilized (0.22 μm syringe filter, Millipore) defensin (10× stock for each final concentration) or water, 10 μL, of filter sterilized (0.22 μm syringe filter, Millipore) proteinase inhibitor or chemical fungicide (10× stock for each final concentration) or water and 80 μL of 5×10^3 spores/mL in ½ strength PDB. The plates were incubated at 24° C. Fungal growth was assayed by measuring optical density at 595 nm (A595) using a microtitre plate reader (SpectraMax Pro M2; Molecular Devices. Growth was allowed to proceed until the optical density (OD) of the fungus in the absence of any test defensin reached an OD of 0.2. Each test was performed in duplicate.
(§3) Synergy is classified as the difference between the observed % fungal growth inhibition caused by the combination of a defensin and a proteinase inhibitor (or a defensin and a chemical fungicide) (Io value) and the expected % fungal growth inhibition of the defensin and the proteinase inhibitor (or the defensin and the chemical fungicide) based on the sum of the % fungal growth inhibition of the defensin and the proteinase inhibitor (or the defensin and the chemical fungicide) on their own (Ee value calculated according to the Limpel formula used by Richer et al. (1987) supra). The difference, Io-Ee, is the synergy value. A synergy value up to 15 means no significant synergy; 15-30 is a low level of synergy; 30-60 is a medium level of synergy; and >60 is a high level of synergy. Synergy calculations are presented in Tables 2 through 7 wherein, as indicated above, Ee is the expected effect from the additive response according to Limpel's formula expressed as percent inhibition and To is the percent inhibition observed. Synergy occurs when To values are higher than Ee values.

[1] = tested on: Trichophyton interdigitale; assay: as above
Method: as §1, §2, §3

Candida albicans [2] = assay: Antifungal growth assay, defensin plus chemical fungicide; design: key to Synergy: Io-Ee in % inhibition points; <15 none, 15-30 low, 30-60 medium, >60 high
Method: Chemical fungicides were sourced commercially and were prepared as 10× stock solutions in H2O (caspofungin and fenpropimorph) or as a 100× stock in methanol (terbinafine).
as §1, §2, §3

Candida albicans [3] = assay: Antifungal growth assay, defensin plus proteinase inhibitor; design: key to Synergy: Io-Ee in % inhibition points; >60 high synergy, <15 none
Method: as §1, §2, §3

[4] = defensin 0.5 μM + BPTI (0.625 μM)
[5] = defensin 0.5 μM + HvCPI6 (2.5 μM)
[6] = defensin 0.5 μM + SlCys9N (2.5 μM)
[7] = defensin 1.5 μM + Caspofungin (2 ng/ml)
[8] = defensin 1.5 μM + Fenpropimorph (2 ug/ml)
[9] = defensin 1.5 μM + Terbinafine (4 ng/ml)
[10] = defensin 2 μM + BPTI (0.625 μM)
[11] = defensin 2 μM + HyCPI6 (2.5 μM)
[12] = defensin 2 μM + SlCys9N (2.5 μM)

HXP4: artificial (synthetic) defensin variant, SEQ ID NO:8; permeabilizing (RECKTESHRFKGPCITKPPCRKACISEKFTDGHCSKILRRCLCTKPC; HXP4 protein)
Observed inhibition (Cryptococcus gattii; [4]): 97.4%
Expected inhibition (Cryptococcus gattii; [4]): 48.8%
Synergy (Cryptococcus gattii; [4]): 48.6
Observed inhibition (Cryptococcus gattii; [5]): 97.4%
Expected inhibition (Cryptococcus gattii; [5]): 18.6%
Synergy (Cryptococcus gattii; [5]): 78.8
Observed inhibition (Cryptococcus gattii; [6]): 99.3%
Expected inhibition (Cryptococcus gattii; [6]): 0.0%
Synergy (Cryptococcus gattii; [6]): 99.3
Observed inhibition [1, 4]: 69.0%
Expected inhibition [1, 4]: 32.9%
Synergy [1, 4]: 36.1
Observed inhibition [1, 5]: 56.8%
Expected inhibition [1, 5]: 31.1%
Synergy [1, 5]: 25.7
Observed inhibition [1, 6]: 53.0%
Expected inhibition [1, 6]: 9.7%
Synergy [1, 6]: 43.4
Observed inhibition (Candida albicans [2]; [7]): 64.5%
Expected inhibition (Candida albicans [2]; [7]): 14.5%
Synergy (Candida albicans [2]; [7]): 50.0
Observed inhibition (Candida albicans [2]; [8]): 97.6%
Expected inhibition (Candida albicans [2]; [8]): 15%
Synergy (Candida albicans [2]; [8]): 82.6
Observed inhibition (Candida albicans [2]; [9]): 82.7%
Expected inhibition (Candida albicans [2]; [9]): 44.8%
Synergy (Candida albicans [2]; [9]): 37.9
Observed inhibition (Candida albicans [3]; [10]): 100%
Expected inhibition (Candida albicans [3]; [10]): 16.2%
Synergy (Candida albicans [3]; [10]): 83.8
Observed inhibition (Candida albicans [3]; [11]): 93.5%
Expected inhibition (Candida albicans [3]; [11]): 15.9%
Synergy (Candida albicans [3]; [11]): 77.6
Observed inhibition (Candida albicans [3]; [12]): 92.4%
Expected inhibition (Candida albicans [3]; [12]): 33%
Synergy (Candida albicans [3]; [12]): 59.4
